Measurements as given in article PMC6014988, “Precision therapeutic targeting of human cancer cell motility” (Nature Communications, 2018).
Read-outs that look alike come from different tables or passages of the source.

Test: Pharmacokinetics in CD1 mice, oral gavage and iv
Format: in vivo, mouse
Protocol: For determination of pharmacokinetic (PK) parameters, KBU2046 was administered by either intravenous injection or oral gavage to groups of N = 3 CD1(ICR) mice at 0 (i.e., vehicle only), 25, or 100 mg/kg. Blood was collected into EDTA by terminal cardiac puncture before drug administration (i.e., baseline) and at 5, 10, 15, 30, 45, 60, 90, 120, 180, 240, 360, 480, 960, 1440 min after administration. In separate experiments, as described above, Balb/c athymic mice were dosed with KBU2046 incorporated into chow for 35 days, after which blood was collected by terminal cardiac puncture. Resultant plasma (~250 μl/mouse) was stored at −80 °C.
Plasma KBU2046 concentrations were measured in duplicate by liquid chromatography-tandem mass spectrometry after sample preparation by solid-phase extraction. Specifically, 0.1 mL of a sample, 10 μL of 0.1 μg/mL internal standard solution (3-(2-chlorophenyl)-(4H-1-benzopyran-4-one, a chloride analog of KBU2046), 3800 μL of water, and 10 μl of 85% phosphoric acid were added, vortexed, and stored at 4 °C for 2 h. After washing a 96-well Strata-X 33 µm polymeric reversed phase 30 mg/well solid-phase extraction plate (Phenomenex) with methanol and water, sample was applied, washed with 20% methanol in water, eluted with 70% acetonitrile/30% methanol, dried at 50 °C under N2, reconstituted with 100 μL of mobile phase, and 20 µL was analyzed on an API 3000 liquid chromatography-tandem mass spectrometry system (Applied Biosystems) with an Agilent 1100 series HPLC system (Agilent Technologies). Samples were eluted isocratically from a Synergi 4-μm MAX-RP 100 Å column (2.0 × 50 mm; Phenomenex) by a mobile phase consisting of 10 mM ammonium formate in water and methanol (30:70 [vol/vol]) at a flow rate of 0.20 mL/min. The tandem mass spectrometer was operated with its electrospray source in the positive ionization mode. The mass-to-charge ratios of the precursor-to-product ion reactions monitored were 243.5 → 125.1 for KBU2046 and 257.0 → 165.0 for the internal standard. The retention time of KBU2046 was ~2.7 min while that of the internal standard was ~2.3 min. The linear range for plasma KBU2046 standard curves was 0.1–25.0 ng/mL, with coefficients of variation of 10% or less throughout the entire concentration range. Fresh plasma standard curves were prepared in blank plasma and run on the day of analysis of plasma samples.
Plasma KBU2046 concentration vs. time relationships after both intravenous and oral drug administration were modeled simultaneously using the SAAM II software system (SAAM Institute), implemented on a WindowsTM-based PC (see PK modeling schema). Plasma concentrations were modeled with a three-compartment PK model using a naive pooled data approach. Oral drug absorption was characterized by a tanks-in-series delay element, to account for the non-instantaneous appearance of drug in the body. Simultaneous estimation of PK model parameters for both routes of administration permitted estimation of the bioavailability of the orally administered drug (F)[41]. The SAAM II objective function used was the extended least-squares maximum likelihood function using data weighted with the inverse of the model-based variance of the data at the observation times. Model misspecification was sought by visual inspection of the measured and predicted marker concentrations vs. time relationships (Fig. 7)[42].

[1] = combined fit of both doses by both routes

## O=C1c2ccccc2OCC1c1ccc(F)cc1 (racemic) [KBU2046, (±)-3(4-fluorophenyl)chroman-4-one]
CD1(ICR), mouse, plasma, combined fit of both doses by both routes, read-out: Clearance, Elimination CLE
  clearance: 1.53 mL/min
CD1(ICR), mouse, plasma, combined fit of both doses by both routes, read-out: Clearance, Fast CLF
  clearance: 0.61 mL/min
CD1(ICR), mouse, plasma, combined fit of both doses by both routes, read-out: Clearance, Slow CLS
  clearance: 0.11 mL/min
CD1(ICR), mouse, plasma, combined fit of both doses by both routes, read-out: Distribution volume, Total VSS
  Vd: 0.0636 L
CD1(ICR), mouse, plasma, combined fit of both doses by both routes, read-out: Elim Half-life (converted)
  half-life: 2.27 h
CD1(ICR), mouse, plasma, 25 mg/kg by oral gavage
  bioavailability: 4.6%
CD1(ICR), mouse, plasma, 100 mg/kg by oral gavage
  bioavailability: 10.1%
[1]
  Absorption delay: 32.3 min
  Distribution volume, Central VC: 19.3 mL
  Distribution volume, Fast VF: 20.4 mL
  Distribution volume, Slow VS: 23.9 mL
Single oral dose
  time plasma concentrations maintained >24 nM: 9.3 h
